Data taken from US10604508B2, “2,3-dihydro-isoindole-1-one derivative as BTK kinase suppressant, and pharmaceutical composition including same” (CrystalGenomics, Inc., priority 2012, dated 2020).

Tests used:
Type in all cases: cell-based
RBL-2H3 cell line = assay: Histamine Release Assay; details: Rattus norvegicus; RBL-2H3 cells, 500 ng/mL monoclonal anti-DNP, 24 hours
Experimental: Histamine release assays were performed with reference to the method disclosed in the article, FEBS Lett. 2002 Sep. 11; 527 (1-3):274-8. Silencing of Bruton's tyrosine kinase (Btk) using short interfering RNA duplexes (siRNA). Heinonen J E, Smith C I, Nore B F, and the amount of histamine was measured by an enzyme immunoassay.
The RBL-2H3 cell line, purchased from KCLB (Korean Cell Line Bank), was grown in a DMEM medium supplemented with 10% (v/v) FBS at 37° C. in a 5% CO2 incubator for 72 hours. The cells were transferred into 96-well plates at a density of 10,000 cells/well, and cultured at 37° C. in the 5% CO2 incubator for 24 hours.
The cells were treated with 500 ng/mL of monoclonal anti-DNP (sigma) and each of 0.001, 0.01, 0.1, 1.0 and 10 μM of the test compound in 100% (v/v) dimethyl sulfoxide (DMSO). The cells were treated only with 100% (v/v) DMSO, which was used as a control. The treated samples were cultured at 37° C. in the 5% CO2 incubator for 24 hours. Then, histamine release was measured according to manufacturer's instructions (EIA histamine kit, immunotech). Each well was treated with 50 μL of a histamine release buffer, and allowed to react for 30 minutes at 37° C. Upon completion of the reaction, 100 μL of a sample from each well was transferred to a new plate, and then was thoroughly mixed with 25 μL of an acetylation buffer and 25 μL of an acetylation reagent. 50 μL of the acetylation sample thus prepared was transferred to a plate coated with an antibody, mixed with 200 μL of histamine alkaline phosphatase conjugate, and then allowed to react for 18 hours at 4° C. Once the reaction is completed, the sample from the plate is removed, and then 200 μL of a wash buffer was added to wash three times. 200 μL of a substrate was added thereto, and the mixture was allowed to react at room temperature for 30 minutes. The reaction was terminated by adding 50 μL of a stop solution, and absorbance of the samples was read at 406 nm using Benchmark Plus (Biorad). The histamine release level was calculated based on absorbance of the test group against that of the control group. The EC50 (μM) values, in which test compounds reduce the histamine release by 50%, were determined by using Microsoft Excel graphic program.

Jeko-1 = assay: MTS anti-proliferation assay, Jeko-1; details: human lymphoma cell line, 48 hours
Experimental: (§1) MTS assay was performed to evaluate the anti-proliferative activities of the inventive compounds via inhibition on extracellular signal-regulated kinase (Barltrop, J. A. et al., (1991) 5-(3-carboxymethoxyphenyl)-2-(4,5-dimethylthiazoly)-3-(4-sulfophenyl) tetrazolium, inner salt (MTS) and related analog of 3-(4,5-dimethylthiazolyl)-2,5,-diphenyltetrazolium bromide (MTT) reducing to purple water soluble formazans as cell-viability indicators. Bioorg. Med Chem. Lett. 1, 611-4; Cory, A. H. et al., (1991) Use of an aqueous soluble tertrazolium/formazan assay for cell growth assays in culture. Cancer Comm. 3, 207-12).
(§2) Human lymphoma cell lines Jeko-1 (ATCC), Mino (ATCC), H9 (Korean Cell Line Bank) and SR (ATCC), and human leukemia cell lines MV4-11 (ATCC), Molm-13 (DSMZ) and Ku812 (ATCC) were used for the test according to the procedure shown below.
(§3) Each of Jeko-1, Mino, H9, SR, MV4-11, Molm-13 and Ku812 cells were transferred into 96-well plates containing RPMI1640 medium (GIBCO, Invitrogen) supplemented with 10% FBS at a density of 10,000 cells/well, and then incubated for 24 hours under conditions of 37° C. and 5% CO2. The wells were treated with each of 0.2, 1, 5, 25 and 100 μM, of the test compounds. The well was treated with DMSO in an amount of 0.08 wt %, which is the same amount as in the test compounds, which was used as a control. The resulting cells were incubated for 48 hours.
(§4) MTS assays are commercially available and include the Promega CellTiter 96® Aqueous Non-Radioactive Cell Proliferation Assay. MTS assays were performed in order to evaluate cell viability of the test compounds. 20 μL of a mixed solution of 3-(4,5-dimethylthiazol-2-yl)-5-(3-carboxymethoxyphenyl)-2-(4-sulfophenyl)-2H-tetrazolium, inner salt (“MTS”) and phenazine methosulfate (PMS) was added to each well, and then incubated for 2 hours at 37° C. Then absorbance of the samples was read at 490 nm. The anti-proliferation activity level was calculated based on absorbance of the test compounds against that of the untreated control group. The EC50 (μM) values, in which test compounds reduce the growth of cancer cells by 50% were calculated.

H9 = assay: MTS anti-proliferation assay, H9; details: human lymphoma cell line, 48 hours
Experimental: as §1, §2, §3, §4

SR = assay: MTS anti-proliferation assay, SR; details: human lymphoma cell line, 48 hours
Experimental: as §1, §2, §3, §4

Mino = assay: MTS anti-proliferation assay, Mino; details: human lymphoma cell line, 48 hours
Experimental: as §1
(§5) Human lymphoma cell lines Jeko-1 (ATCC), Mino (ATCC), H9 (Korean Cell Line Bank) and SR (ATCC), and human leukemia cell lines MV4-11 (ATCC), Molm-13 (DSMZ) and Ku812 (ATCC) were used for the test according to the procedure shown below. […]
(§6) MTS assays are commercially available and include the Promega CellTiter 96® Aqueous Non-Radioactive Cell Proliferation Assay. […] Then absorbance of the samples was read at 490 nm. The anti-proliferation activity level was calculated based on absorbance of the test compounds against that of the untreated control group. […]

MV4-11 = assay: MTS anti-proliferation assay, MV4-11; details: human leukemia cell line, 48 hours
Experimental: as §1, §5, §6

Molm-13 = assay: MTS anti-proliferation assay, Molm-13; details: human leukemia cell line, 48 hours
Experimental: as §1, §5, §6

Ku812 = assay: MTS anti-proliferation assay, Ku812; details: human leukemia cell line, 48 hours
Experimental: as §1, §5, §6

| SMILES | EC50 (RBL-2H3 cell line) [nM] | EC50 (MV4-11) [nM] | EC50 (Molm-13) [nM] | EC50 (Jeko-1) [nM] | EC50 (H9) [nM] | EC50 (SR) [nM] | EC50 (Mino) [nM] | EC50 (Ku812) [nM] |
| --- | --- | --- | --- | --- | --- | --- | --- | --- |
| Cc1cnc(-c2ccc(-c3ccc(NC(=O)Nc4c(F)c(F)c(F)c(F)c4F)cc3F)c3c2C(=O)NC3)[nH]1 [Compound 9, 1-{3-fluoro-4-[7-(5-methyl-1H-imidazol-2-yl)-1-oxo-2,3-dihydro-1H-isoindol-4-yl]-phenyl}-3-pentafluorophenyl-urea] | 350 | – | – | 30 | 6 | 18 | – | – |
| Cc1cnc(-c2ccc(-c3ccc(NC(=O)Nc4c(F)ccc(F)c4Cl)cc3F)c3c2C(=O)NC3)[nH]1 [Compound 18, 1-(2-chloro-3,6-difluorophenyl)-3-(3-fluoro-4-(7-(5-methyl-1H-imidazol-2-yl)-1-oxoisoindolin-4-yl)phenyl)urea] | 300 | – | – | 30 | 20 | 20 | – | – |
| Cc1cnc(-c2ccc(-c3ccc(NC(=O)Nc4c(F)cccc4Cl)cc3F)c3c2C(=O)NC3)[nH]1 [Compound 4, 1-(2-chloro-6-fluoro-phenyl)-3-{3-fluoro-4-[7-(5-methyl-1H-imidazol-2-yl)-1-oxo-2,3-dihydro-1H-isoindol-4-yl]-phenyl}-urea] | 250 | – | – | 100 | 30 | 30 | – | – |
| Cc1cnc(-c2ccc(-c3ccc(NC(=O)Nc4ccc(F)c(F)c4)cc3F)c3c2C(=O)NC3)[nH]1 [Compound 14, 1-(3,4-difluoro-phenyl)-3-{3-fluoro-4-[7-(5-methyl-1H-imidazol-2-yl)-1-oxo-2,3-dihydro-1H-isoindol-4-yl]-phenyl}-urea] | 200 | – | – | 30 | 20 | 18 | – | – |
| Cc1cnc(-c2ccc(-c3ccc(NC(=O)Nc4c(F)ccc(Cl)c4F)cc3F)c3c2C(=O)NC3)[nH]1 [Compound 17, 1-(3-chloro-2,6-difluorophenyl)-3-(3-fluoro-4-(7-(5-methyl-1H-imidazol-2-yl)-1-oxoisoindolin-4-yl)phenyl)urea] | 40 | 4 | 12 | 30 | 20 | 25 | 18 | 190 |
| Cc1cnc(-c2ccc(-c3ccc(NC(=O)Nc4ccc(C#N)c(F)c4)cc3F)c3c2C(=O)NC3)[nH]1 [Compound 15, 1-(4-cyano-3-fluorophenyl)-3-(3-fluoro-4-(7-(5-methyl-1H-imidazol-2-yl)-1-oxoisoindolin-4-yl)phenyl)urea] | 220 | – | – | 100 | 190 | 150 | – | – |

Second part, led by results:

| EC50 (RBL-2H3 cell line) [nM] | EC50 (MV4-11) [nM] | EC50 (Molm-13) [nM] | SMILES | EC50 (Jeko-1) [nM] | EC50 (H9) [nM] | EC50 (SR) [nM] | EC50 (Mino) [nM] | EC50 (Ku812) [nM] |
| --- | --- | --- | --- | --- | --- | --- | --- | --- |
| 300 | – | – | Cc1cnc(-c2ccc(-c3ccc(NC(=O)Nc4c(F)c(F)cc(F)c4F)cc3F)c3c2C(=O)NC3)[nH]1 [Compound 20, 1-{3-fluoro-4-[7-(5-methyl-1H-imidazol-2-yl)-1-oxo-2,3-dihydro-1H-isoindol-4-yl]-phenyl}-3-(2,3,5,6-tetrafluoro-phenyl)-urea] | 30 | 10 | 17 | – | – |
| 300 | – | – | Cc1cnc(-c2ccc(-c3ccc(NC(=O)Nc4c(F)ccc(F)c4F)cc3F)c3c2C(=O)NC3)[nH]1 [Compound 12, 1-{3-fluoro-4-[7-(5-methyl-1H-imidazol-2-yl)-1-oxo-2,3-dihydro-1H-isoindol-4-yl]-phenyl}-3-(2,3,6-trifluoro-phenyl)-urea] | 150 | 40 | 20 | – | – |
| 300 | – | – | Cc1cnc(-c2ccc(-c3ccc(NC(=O)Nc4c(F)cc(Cl)cc4F)cc3F)c3c2C(=O)NC3)[nH]1 [Compound 19, 1-(4-chloro-2,6-difluoro-phenyl)-3-{3-fluoro-4-[7-(5-methyl-1H-imidazol-2-yl)-1-oxo-2,3-dihydro-1H-isoindol-4-yl]-phenyl}-urea] | 30 | 40 | 20 | – | – |
| 220 | 2 | 3 | Cc1cnc(-c2ccc(-c3ccc(NC(=O)Nc4c(F)cc(F)cc4F)cc3F)c3c2C(=O)NC3)[nH]1 [Compound 7, 1-{3-fluoro-4-[7-(5-methyl-1H-imidazol-2-yl)-1-oxo-2,3-dihydro-1H-isoindol-4-yl]-phenyl}-3-(2,4,6-trifluoro-phenyl)-urea] | 30 | 7 | 15 | 18 | 600 |
| 450 | – | – | Cc1cnc(-c2ccc(-c3ccc(NC(=O)Nc4c(F)cccc4F)cc3F)c3c2C(=O)NC3)[nH]1 [Compound 3, 1-(2,6-difluoro-phenyl)-3-{3-fluoro-4-[7-(5-methyl-1H-imidazol-2-yl)-1-oxo-2,3-dihydro-1H-isoindol-4-yl]-phenyl}-urea] | 100 | 30 | 100 | – | – |
